The target of assay [1] is von Hippel-Lindau disease tumor suppressor/Bromodomain-containing protein 4 (Homo sapiens, UniProt O60885+P40337). The assay is described as follows: PROTAC activity at BRD4/VHL in human MCF7 cells assessed as reduction in BRD4 level incubated for 24 hrs in presence of VHL based ligand (2S,4R)-1-((S)-2-(3,4-dihydroxybenzamido)-3,3-dimethylbutanoyl)-4-hydroxy-N-(4-(4-methylthiazol-5-yl)benzyl)pyrrolidine-2-carboxamide by Western blot based Combinatorial Ubiquitination Real-time PROteolysis analysis. It counts as cell-based. (A western blot detects proteins with antibodies after separation by electrophoresis.)

Assay [2] addresses T1, Protein cereblon/Bromodomain-containing protein 4 (Homo sapiens) (UniProt O60885+Q96SW2). Put plainly: PROTAC activity at BRD4/CRBN in human HeLa cells assessed as induction of BRD4 degradation in presence of N-((2-(2,6-dioxopiperidin-3-yl)-1,3-dioxoisoindolin-4-yl)methyl)-2,3-dihydroxybenzamide by Combinatorial Ubiquitination Real-time PROteolysis analysis. It counts as cell-based. The following applies: dose 0.1-10 µM.

Assay [3] concerns the target T2, Protein cereblon/Bromodomain-containing protein 3 (Homo sapiens) (UniProt Q15059+Q96SW2). The assay is described as follows: PROTAC activity at BRD3/CRBN in human HeLa cells assessed as induction of BRD3 degradation at 10 uM in presence of CRBN ligand based N-((2-(2,6-dioxopiperidin-3-yl)-1,3-dioxoisoindolin-4-yl)methyl)-2,3-dihydroxybenzamide incubated for 24 hrs by Combinatorial Ubiquitination Real-time PROteolysis analysis. It counts as cell-based.

In assay [4] the target is T2, Protein cereblon/Bromodomain-containing protein 3 (Homo sapiens). Put plainly: PROTAC activity at BRD2/CRBN in human HeLa cells assessed as induction of BRD2 degradation at 10 uM in presence of CRBN ligand based N-((2-(2,6-dioxopiperidin-3-yl)-1,3-dioxoisoindolin-4-yl)methyl)-2,3-dihydroxybenzamide incubated for 24 hrs by Combinatorial Ubiquitination Real-time PROteolysis analysis. The format is cell-based.

Assay [5] deals with T1, Protein cereblon/Bromodomain-containing protein 4 (Homo sapiens). The assay is described as follows: PROTAC activity at BRD4/CRBN in human HeLa cells assessed as induction of BRD4 degradation at 10 uM incubated for 24 hrs in presence of CRBN based ligand N-((2-(2,6-dioxopiperidin-3-yl)-1,3-dioxoisoindolin-4-yl)methyl)-2,3-dihydroxybenzamide by Combinatorial Ubiquitination Real-time PROteolysis analysis. It counts as cell-based.

For assay [6] the target is unchanged. The assay is described as follows: PROTAC activity at BRD4/CRBN in human HeLa cells assessed as induction of BRD4 degradation at 10 uM incubated for 24 hrs in presence of JQ1 by Western blot analysis. The format is cell-based.
For assay [7] the target is unchanged. Put plainly: PROTAC activity at BRD4/CRBN in human HeLa cells assessed as induction of BRD4 degradation at 10 uM incubated for 24 hrs in presence of BRD4 based ligand (3-((4S)-6-(4-chlorophenyl)-4-(2-(ethylamino)-2-oxoethyl)-1-methyl4H-benzo[f][1,2,4]triazolo[4,3-a][1,4]diazepin-8-yl)phenyl)boronic acid by Combinatorial Ubiquitination Real-time PROteolysis analysis. The format is cell-based.

The target of assay [8] is T2, Protein cereblon/Bromodomain-containing protein 3 (Homo sapiens). The assay is described as follows: PROTAC activity at BRD3/CRBN in human HeLa cells assessed as induction of BRD3 degradation at 10 uM in presence of BRD3 ligand based (3-((4-((4S)-4-(2-(ethylamino)-2-oxoethyl)-8-methoxy-1-methyl4Hbenzo[f][1,2,4]triazolo[4,3-a][1,4]diazepin-6-yl)phenyl)thio)phenyl)boronic acid incubated for 24 hrs by Combinatorial Ubiquitination Real-time PROteolysis analysis. It counts as cell-based.

The next assay concerns BRD2/CRBN (Homo sapiens). The assay is described as follows: PROTAC activity at BRD2/CRBN in human HeLa cells assessed as induction of BRD2 degradation at 10 uM in presence of BRD3 ligand based (3-((4-((4S)-4-(2-(ethylamino)-2-oxoethyl)-8-methoxy-1-methyl4Hbenzo[f][1,2,4]triazolo[4,3-a][1,4]diazepin-6-yl)phenyl)thio)phenyl)boronic acid incubated for 24 hrs ….
For assay [9], the target named is T1, Protein cereblon/Bromodomain-containing protein 4 (Homo sapiens). The assay is described as follows: PROTAC activity at BRD4/CRBN in human HeLa cells assessed as induction of BRD4 degradation at 0.1 to 10 uM in presence of N-((2-(2,6-dioxopiperidin-3-yl)-1,3-dioxoisoindolin-4-yl)methyl)-2,3-dihydroxybenzamide by Combinatorial Ubiquitination Real-time PROteolysis analysis. The format is cell-based. The following applies: dose 0.1-10 µM.

The target of assay [10] is T3, BRD4/E3 ubiquitin-protein ligase Mdm2 (Homo sapiens) (UniProt Q00987+O60885). The assay is described as follows: PROTAC activity at MDM2/BRD4 in human HCT-116 cells assessed as induction of BRD4 degradation incubated for 6 hrs. It counts as cell-based.
The target of assay [11] is T3, BRD4/E3 ubiquitin-protein ligase Mdm2 (Homo sapiens). The assay is described as follows: PROTAC activity at MDM2/BRD4 in human HCT-116 cells assessed as activation of caspase 3/7 incubated for 6 hrs in presence of BRD4 ligand based (86)-N-(2-(2-(((4S)-6-(4-chlorophenyl)-4-(2-(ethylamino)-2-oxoethyl)-1-methyl-4H-benzo[f][1,2,4]triazolo[4,3-a][1,4]diazepin-8-yl)oxy)ethoxy)ethyl)-2,3-dihydroxybenzamide by Combinatorial Ubiquitination Real-time PROteolysis analysis. It counts as cell-based.

For assay [12] the target is unchanged. The assay is described as follows: PROTAC activity at MDM2/BRD4 in human HCT-116 cells assessed as induction of BRD4 degradation incubated for 6 hrs in presence of BRD4 ligand based (86)-N-(2-(2-(((4S)-6-(4-chlorophenyl)-4-(2-(ethylamino)-2-oxoethyl)-1-methyl-4H-benzo[f][1,2,4]triazolo[4,3-a][1,4]diazepin-8-yl)oxy)ethoxy)ethyl)-2,3-dihydroxybenzamide by Combinatorial Ubiquitination Real-time PROteolysis analysis. The format is cell-based.

Assay [13] has the same target. The assay is described as follows: PROTAC activity at MDM2/BRD4 in human HCT-116 cells assessed as downregulation of SLC19A1 level at 10 uM incubated for 24 hrs by qPCR analysis. It counts as cell-based. For orientation: In qPCR the cycle at which signal appears reflects the starting amount.
Assay [14] shares this target. The assay is described as follows: PROTAC activity at MDM2/BRD4 in human HCT-116 cells assessed as downregulation of SLC19A1 level at 10 uM incubated for 24 hrs in presence of BRD4 ligand based (86)-N-(2-(2-(((4S)-6-(4-chlorophenyl)-4-(2-(ethylamino)-2-oxoethyl)-1-methyl-4H-benzo[f][1,2,4]triazolo[4,3-a][1,4]diazepin-8-yl)oxy)ethoxy)ethyl)-2,3-dihydroxybenzamid by qPCR based Combinatorial Ubiquitination Real-time PROteolysis analysis. The format is cell-based.

Assay [15] concerns NAMALVA. Put plainly: Antiproliferative activity against human NAMALVA cells assessed as reduction in cell viability incubated for 72 hrs in presence of BRD4 ligand based (86)-N-(2-(2-(((4S)-6-(4-chlorophenyl)-4-(2-(ethylamino)-2-oxoethyl)-1-methyl-4H-benzo[f][1,2,4]triazolo[4,3-a][1,4]diazepin-8-yl)oxy)ethoxy)ethyl)-2,3-dihydroxybenzamide by celltiter-glo assay. It counts as functional.

Assay [16] deals with NAMALVA. The assay is described as follows: Antiproliferative activity against human NAMALVA cells assessed as reduction in cell viability incubated for 72 hrs by celltiter-glo assay. The format is functional, cell-based. On the technique in general: Cellular ATP, detected with luciferase, serves as a proxy for viable cell number.
Assay [17] addresses T3, BRD4/E3 ubiquitin-protein ligase Mdm2 (Homo sapiens). The assay is described as follows: PROTAC activity at MDM2/BRD4 in human HCT-116 cells assessed as downregulation of SLC19A1 level at 10 uM incubated for 24 hrs in presence of MDM2 ligand based (4-((2-(4-((4S,5R)-4,5-bis(4-chlorophenyl)-2-(2-isopropoxy-4-methoxyphenyl)-4,5-dihydro-1H-imidazole-1-carbonyl)-2-oxopiperazin-1-yl)ethyl)carbamoyl)phenyl)boronic acid by qPCR based Combinatorial Ubiquitination Real-time PROteolysis analysis. The format is cell-based.

The target is the same in assay [18]. Put plainly: PROTAC activity at MDM2/BRD4 in human HCT-116 cells assessed as activation of caspase3/7 incubated for 6 hrs in presence of MDM2 ligand based (4-((2-(4-((4S,5R)-4,5-bis(4-chlorophenyl)-2-(2-isopropoxy-4-methoxyphenyl)-4,5-dihydro-1H-imidazole-1-carbonyl)-2-oxopiperazin-1-yl)ethyl)carbamoyl)phenyl)boronic acid by Combinatorial Ubiquitination Real-time PROteolysis analysis. The format is cell-based.

For assay [19], the system named is NAMALVA. The assay is described as follows: Antiproliferative activity against human NAMALVA cells assessed as reduction in cell viability incubated for 72 hrs in presence of MDM2 ligand based (4-((2-(4-((4S,5R)-4,5-bis(4-chlorophenyl)-2-(2-isopropoxy-4-methoxyphenyl)-4,5-dihydro-1H-imidazole-1-carbonyl)-2-oxopiperazin-1-yl)ethyl)carbamoyl)phenyl)boronic acid by celltiter-glo assay. It counts as functional.

In assay [20] the target is T3, BRD4/E3 ubiquitin-protein ligase Mdm2 (Homo sapiens). Put plainly: PROTAC activity at MDM2/BRD4 in human HCT-116 cells assessed as induction of BRD4 degradation incubated for 6 hrs in presence of MDM2 ligand based (4-((2-(4-((4S,5R)-4,5-bis(4-chlorophenyl)-2-(2-isopropoxy-4-methoxyphenyl)-4,5-dihydro-1H-imidazole-1-carbonyl)-2-oxopiperazin-1-yl)ethyl)carbamoyl)phenyl)boronic acid by Combinatorial Ubiquitination Real-time PROteolysis analysis. The format is cell-based.

The text below walks through data of ChEMBL document CHEMBL5543126, “Combinatorial Ubiquitination REal-time PROteolysis (CURE-PROs): A Modular Platform for Generating Reversible, Self-Assembling Bifunctional Targeted Degraders” (J Med Chem, 2024).

Structures are written as SMILES. Calls of active or inactive are those of the source. No cut-off for these calls is given here.

In general, IC50 refers to the concentration at which inhibition is half-maximal.

T3 sequence (Q00987 whole entry, looked up, other chains not shown): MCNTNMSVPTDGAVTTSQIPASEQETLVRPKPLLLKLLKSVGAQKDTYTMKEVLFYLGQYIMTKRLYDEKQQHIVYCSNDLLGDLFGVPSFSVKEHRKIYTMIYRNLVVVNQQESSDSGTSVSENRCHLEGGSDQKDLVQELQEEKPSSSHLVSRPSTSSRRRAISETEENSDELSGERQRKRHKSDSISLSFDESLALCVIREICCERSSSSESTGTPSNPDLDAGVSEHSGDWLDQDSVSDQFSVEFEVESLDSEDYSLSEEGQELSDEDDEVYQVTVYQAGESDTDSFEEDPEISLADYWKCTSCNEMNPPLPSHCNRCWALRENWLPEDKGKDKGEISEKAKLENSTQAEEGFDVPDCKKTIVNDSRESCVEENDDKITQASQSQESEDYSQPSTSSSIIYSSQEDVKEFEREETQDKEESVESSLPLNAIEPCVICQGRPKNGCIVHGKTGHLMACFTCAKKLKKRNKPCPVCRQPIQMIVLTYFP
T1 sequence (Q96SW2 whole entry, looked up, other chains not shown): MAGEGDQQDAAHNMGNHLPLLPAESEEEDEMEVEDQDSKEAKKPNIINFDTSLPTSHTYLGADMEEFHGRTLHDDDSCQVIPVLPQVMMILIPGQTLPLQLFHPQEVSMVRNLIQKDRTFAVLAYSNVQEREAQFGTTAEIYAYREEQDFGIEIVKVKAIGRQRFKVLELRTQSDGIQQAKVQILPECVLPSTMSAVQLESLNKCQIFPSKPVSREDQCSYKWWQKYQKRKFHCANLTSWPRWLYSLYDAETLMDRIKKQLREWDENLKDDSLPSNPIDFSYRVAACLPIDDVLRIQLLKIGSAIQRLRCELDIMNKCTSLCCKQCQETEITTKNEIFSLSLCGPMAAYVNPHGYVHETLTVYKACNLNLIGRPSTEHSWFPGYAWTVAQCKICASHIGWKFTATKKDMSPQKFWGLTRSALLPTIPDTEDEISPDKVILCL
T2 sequence (Q15059 2-726 limits assumed): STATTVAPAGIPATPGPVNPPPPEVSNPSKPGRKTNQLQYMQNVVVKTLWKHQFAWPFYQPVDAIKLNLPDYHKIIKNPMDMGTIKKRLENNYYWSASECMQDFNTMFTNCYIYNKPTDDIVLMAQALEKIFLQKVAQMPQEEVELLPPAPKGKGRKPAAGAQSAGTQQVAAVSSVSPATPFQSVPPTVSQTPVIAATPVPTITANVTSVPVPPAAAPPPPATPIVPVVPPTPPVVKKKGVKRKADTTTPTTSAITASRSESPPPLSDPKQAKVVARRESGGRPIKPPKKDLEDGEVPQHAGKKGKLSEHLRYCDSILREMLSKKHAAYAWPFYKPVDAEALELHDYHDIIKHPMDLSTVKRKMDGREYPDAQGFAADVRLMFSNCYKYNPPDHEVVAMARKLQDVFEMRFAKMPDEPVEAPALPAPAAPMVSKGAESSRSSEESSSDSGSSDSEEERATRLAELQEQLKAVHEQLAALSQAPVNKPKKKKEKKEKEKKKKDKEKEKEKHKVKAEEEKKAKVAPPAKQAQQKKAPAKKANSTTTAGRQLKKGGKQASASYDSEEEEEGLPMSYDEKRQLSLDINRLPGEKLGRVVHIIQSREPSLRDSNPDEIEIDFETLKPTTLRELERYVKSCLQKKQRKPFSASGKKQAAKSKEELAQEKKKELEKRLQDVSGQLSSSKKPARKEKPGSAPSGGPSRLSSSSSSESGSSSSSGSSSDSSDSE
T2 sequence (Q96SW2 whole entry partner): as the sequence (Q96SW2 whole entry, looked up, other chains not shown) above
Chain of von Hippel-Lindau disease tumor suppressor/Bromodomain-containing protein 4 (P40337 whole entry, looked up, other chains not shown): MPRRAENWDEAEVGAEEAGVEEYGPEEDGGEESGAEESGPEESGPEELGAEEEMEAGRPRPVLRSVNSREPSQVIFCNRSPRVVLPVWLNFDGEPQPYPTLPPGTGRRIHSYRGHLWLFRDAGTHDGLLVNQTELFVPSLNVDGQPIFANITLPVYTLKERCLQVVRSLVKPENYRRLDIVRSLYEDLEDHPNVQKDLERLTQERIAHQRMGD

With `Cc1ncsc1-c1ccc(CNC(=O)[C@@H]2C[C@@H](O)CN2C(=O)[C@@H](NC(=O)c2ccc(O)c(O)c2)C(C)(C)C)cc1`, the result in assay [1] was inactive.
Turning to `CCNC(=O)C[C@@H]1N=C(c2ccc(Sc3cccc(B(O)O)c3)cc2)c2cc(OC)ccc2-n2c(C)nnc21`, the Activity entry in assay [2] was “Dose-Dependent Effect”. For the same compound, the outcome in assay [3] and in [4] was Active.
With `CCNC(=O)C[C@@H]1N=C(c2ccc(Cl)cc2)c2cc(-c3cccc(B(O)O)c3)ccc2-n2c(C)nnc21`, the result in assay [5] was Active. Further, the outcome in [6] was inactive.
As for `O=C1CCC(N2C(=O)c3cccc(CNC(=O)c4cccc(O)c4O)c3C2=O)C(=O)N1` (configuration not stated), the outcome (in [7]; in assay [8]; in the assay on BRD2/CRBN (Homo sapiens)) was Active. The result in [6] was inactive.
Regarding `CCNC(=O)C[C@@H]1N=C(c2ccc(Sc3ccccc3)cc2)c2cc(OC)ccc2-n2c(C)nnc21`, in assay [9], the outcome was inactive.
As for `CCNC(=O)C[C@@H]1N=C(c2ccc(Cl)cc2)c2cc(OCCOCCNC(=O)c3cccc(O)c3O)ccc2-n2c(C)nnc21`, the result in assay [10] and in [13] was inactive. In addition, the outcome in assay [11], in [12] and in [14] was Active. Further, the IC50 was 724 nM in the assay on NAMALVA [15] and 51300 nM in the assay with NAMALVA [16].
As to `COc1ccc(C2=N[C@H](c3ccc(Cl)cc3)[C@@H](c3ccc(Cl)cc3)N2C(=O)N2CCN(CCNC(=O)c3ccc(B(O)O)cc3)C(=O)C2)c(OC(C)C)c1`, the result in assay [17], in assay [18] and in [20] was Active. For the same compound, the IC50 with NAMALVA [19] came to 724 nM.
